# Earlier results as cited in patent publication US9445992B2, “Mucosal delivery compositions comprising a peptide complexed with a crown compound and/or a counter ion” (ARISGEN SA, priority 2009, dated 2016).
# Conditions: in water
compound,measurement,value
"CCCCCCCCCCCC(=O)OC[C@H](COP(=O)(O)OCC(O)CO)OC(=O)CCCCCCCCCCC (stereo partly shown) [DLPG, dilauryloylphosphatidylglycerol]",pKa,< 2
